Patent US20180094051A1, “METHOD FOR INHIBITING LYMPHANGIOGENESIS BY ADMINISTRATION OF AN INHIBITOR OF THE CXCL12 PATHWAY” (Tsinghua University, priority 2012, published 2018)
“Also recorded” adds a separate entry of the source.

B1: CXCR4: Printed in b110 as the treating agent; apparently a misprint for VEGF-C (protein)
chain: MEPISVSIYTSDNYSEEVGSGDYDSNKEPCFRDENVHFNRIFLPTIYFIIFLTGIVGNGLVILVMGYQKKLRSMTDKYRLHLSVADLLFVITLPFWAVDAMADWYFGKFLCKAVHIIYTVNLYSSVLILAFISLDRYLAIVHATNSQRPRKLLAEKAVYVGVWIPALLLTIPDFIFADVSQGDISQGDDRYICDRLYPDSLWMVVFQFQHIMVGLILPGIVILSCYCIIISKLSHSKGHQKRKALKTTVILILAFFACWLPYYVGISIDSFILLGVIKQGCDFESIVHKWISITEALAFFHCCLNPILYAFLGAKFKSSAQHALNSMSRGSSLKILSKGKRGGHSSVSTESESSSFHSS

Legend:
[1] = system: mouse lymphatic endothelial cells; experiment: Cell chemotaxis assay (Transwell); assay type: cell-based; settings: antibodies 5 μg/mL, AMD3100 25 μg/mL, 6 hours; for effect on migration of mouse lymphatic endothelial cells induced by CXCL12: CXCL12 100 ng/mL, LY294002 and U0126 10 μM, pretreated 30 minutes
Description: The migration ability of mouse lymphatic endothelial cells was assessed using 8-μm-pore Transwell bucket (filter membrane) (purchased from Costar). The transwell bucket was placed into a 24-well plate. Mouse primary lymphatic endothelial cells (mLECs) at passage 2 or 3 in good conditions were selected, and divided into five groups, four parallel samples for each group and approximately 2×10^4 cells for each parallel sample. The cells were digested with trypsin, resuspended in 200 μL of fresh serum-free endothelial cell culture medium (ECM, purchased from Sciencell), and then seeded into the inner chambers of the Transwell bucket. To each outer chamber was added 800 μL of serum-free endothelial cell culture medium mixed with 1 ng/mL, 20 ng/mL, 100 ng/mL of chemokine CXCL12 (purchased from R&D Systems), 100 ng/mL of VEGF-C (purchased from R&D Systems) and PBS control, respectively. The culture plate was placed into an incubator and incubated under 5% CO2 at 37° C. for 6 hours.
After taking out the culture plate, the Transwell bucket was fixed in 4% paraformaldehyde solution for 15 minutes. The Transwell bucket was rinsed twice in PBS, stained with 0.1% crystal violet solution for 30 minutes, and then washed with PBS to remove the non-specifically bound crystal violet. The cells inside Transwell membrane were wiped off gently with medical cotton swabs. Note that the cells on the edge of the membrane should also be wiped off to avoid affecting cell counting. The Transwell bucket was placed under a microscope (Olympus IX71 microscope), and the cells migrated from the outer membrane were observed by microscopy. 8 fields per group were photographed randomly to count the cells.
The migration ability of mouse lymphatic endothelial cells was assessed using 8-μm-pore Transwell bucket (purchased from Costar). The bucket was placed into a 24-well plate. Mouse primary lymphatic endothelial cells (mLECs) at passage 2 or 3 in good conditions were selected, and divided into six groups, four parallel samples for each group, and approximately 2×10^4 cells for each parallel sample. The cells were digested with trypsin and resuspended in 200 μL, of fresh serum-free endothelial cell culture medium (ECM, purchased from Sciencell). The cells were pretreated for 30 minutes with dimethyl sulfoxide (DMSO) as a control, protein kinase B (Akt) antagonist LY294002 (10 μM, purchased from Sigma-Aldrich) and extracellular signal-regulated kinase (Erk) antagonist U0126 (10 μM, purchased from Sigma-Aldrich), respectively, and then seeded into the inner chambers of the Transwell bucket. […] The cells were stained and the number of the migrated cells was counted.
The migration ability of mouse lymphatic endothelial cells was detected by using 8-μm-pore Transwell bucket (purchased from Costar). […]

[2] = system: newly formed lymphatic vessels; experiment: In vivo Matrigel plug assay (lymphangiogenesis); parameters: species or system BALB/c mice; settings: CXCL12 500 ng/mL; antibodies 10 μg/mL, AMD3100 50 μg/mL; 8 days
Description: Matrigel plug assay was conducted as previously reported^[44]. BALB/C mice (5 weeks old, female, purchased from Vital River Laboratories, Beijing) were divided into five groups, five mice each group. Growth factor-free Matrigel (9-10 mg/mL, purchased from Becton-Dickinson Biosciences) containing 20 ng/mL, 100 ng/mL, 500 ng/mL of chemokine CXCL12 (purchased from R&D Systems), 500 ng/mL of VEGF-C (purchased from R&D Systems), and PBS control, respectively, was injected subcutaneously into the BALB/c mice along the abdominal midline. The Matrigel formed a solid plug in the mice, and the agent was slowly released from the Matrigel to stimulate new mouse lymphatic vessels to be formed and grown into the Matrigel. 8 days later, the Matrigel was removed carefully.
After being washed in PBS, the Matrigel were fixed in 30% sucrose solution at 4° C. overnight. Frozen sections in a thickness of about 10 μm were prepared and stored at −20° C. The frozen sections were blocked with a blocking solution in a humidified chamber at room temperature for 1 hour. The blocking solution was PBS containing 10% normal goat serum. […]
The newly formed lymphatic vessels in the Matrigel were detected by immunofluorescence, and observed and imaged under a laser confocal microscope (Nikon A1) using the imaging and statistic software NIS-Elements AR 3.0. […]

[3] = system: chemokine receptor CXCR4; experiment: Immunoblotting of CXCR4 in lymphatic endothelial cells (incl. HIF-1α RNA interference); assay type: cell-based; settings: mouse lymphatic endothelial cells, 100 ng/mL VEGF-C, 6, 12 and 24 hours
Description: Mouse primary lymphatic endothelial cells at passage 2 or 3 in good condition were selected, and starved overnight by replacing the culture medium with a fresh medium free of serum and growth factors. Then the medium was replaced with a medium containing 100 ng/mL of VEGF-C. The cells were incubated for 6, 12 and 24 hours, respectively, and then trypsinized and collected by centrifugation for detecting the expression level of chemokine receptor CXCR4 in the cells by immunoblotting.
The samples were subjected to SDS-PAGE (the concentration of separation gel was 15%). Protein bands were transferred to polyvinylidene difluoride (PVDF) membrane (purchased from Millipore) at 100 mA for 3 hours using an electroblotting device in ice bath. TBST buffer (20 mM Tris, pH7.4, 150 mM NaCl, 0.1% Tween-20) was formulated for preparing blocking solution, primary antibody solution and secondary antibody solution. The PVDF membrane was further incubated in blocking solution containing 5% skim milk for 1 hour at room temperature with gentle shaking. The membrane was then washed with TBST for 5 times, 5 minutes each. […]
The siRNA for interfering with the chemical synthesis of HIF-1α was purchased from Santa Cruz Biotechnology, and the negative control siRNA was purchased from GenePharma, Shanghai. […] HIF-1α knock-down efficiency was detected by immunoblotting. […]

Molecule	effect on migration of mouse lymphatic endothelial cells induced by CXCL12 [1]	effect on activity of VEGF-C (migration of mouse lymphatic endothelial cells) ([1]; VEGF-C 100 ng/mL)	effect on lymphangiogenesis induced by CXCL12 in Matrigel plug [2]	expression level of CXCR4 [3]
c1cc(CN2CCCNCCNCCCNCC2)ccc1CN1CCCNCCNCCCNCC1 [AMD3100]	could inhibit the migration of mouse lymphatic endothelial cells induced by CXCL12; also recorded: activity of chemokine CXCL12 was inhibited	had no effect on the activity of growth factor VEGF-C; also recorded: the activity of VEGF-C was not affected	could significantly reduce the activity of chemokine CXCL12	
N#CC(=C(/N)Sc1ccccc1N)/C(C#N)=C(\N)Sc1ccccc1N [U0126]	inhibited the lymphatic endothelial cell migration induced by chemokine CXCL12			
B1				could upregulate the expression level of CXCR4
